Assay results as given in US20160017011A1, “PHF20 AND JMJD3 COMPOSITIONS AND METHODS OF USE IN CANCER IMMUNOTHERAPY” (priority 2013, published 2016).
Residues, ends and D or L forms follow the SMILES beside them. *: point of attachment. Cbz = O=C(OCc1ccccc1)*

Tests used:
[1] = tested on: iPSC colony formation; test: iPSC colony formation and cell death after MG132 treatment; type: cell-based
Experimental: Mouse iPSCs were generated as previously described (Takahashi et al., 2007a) with some minor modifications. Briefly, MEFs (1-8×10^4/well) were seeded on irradiated-MEFs in a 6-well plate. On the next day, the cells were transduced with an equal amount of lentiviruses expressing the four factors and rtTA. The following day, transduced-MEFs were cultured with mESC medium containing 2 μg/mL Dox for 14 days. Tet-O-4F MEFs were used to generate iPSCs by treating MEFs with Dox in mESC medium. The efficiency of iPSC formation as calculated based on the number of AP positive iPSC colonies and the initial cell number of seeded MEFs. Human iPSCs were generated as previously described (Park et al., 2008).
(§1) Jmjd3-Trim26 is responsible for the enhanced reprogramming efficiency observed in Jmjd3-1-MEFs or in Dox-treated Tet-O-PHF20 MEFs.

[2] = tested on: PHF20 protein; test: PHF20 protein amounts after MG132 treatment; type: cell-based; settings: even when both Trim26 and Jmjd3 were overexpressed
Source text: as §1

[3] = tested on: PHF20938-946-specific CD8+ T cells; test: Recognition of peptide-pulsed T2 cells by PHF20-specific T cells (IFN-γ release); type: cell-based, human; settings: T cells generated from PBMCs of HLA-A2+ healthy donors; FIG. 9A
Experimental: (FIG. 9A) PHF20938-946-specific CD8^+ T cells were generated from normal donor PBMCs after in vitro stimulation with PHF20 peptides, and used to determine the recognition of T2 cells loaded with different concentrations of PHF20938-946, peptide, or a control peptide as a negative control. (FIG. 9B) PHF20938-946-specific T cells were cultured alone in medium or co-incubated with HLA-A2^+ PHF20^+ (MCF-7) or HLA-A2^− PHF20^+ (DU4475, MDA-MB-361) breast cancer cell lines. A normal breast epithelial cell line MCF-10A is included as a control. T cell activity was determined by measuring cytokine (IFN-γ) release. (FIG. 9C) PHF20938-946-specific CD8^+ T cells were tested for cytotoxicity against MCF-7 by the LDH assay. HLA-A2 negative PHF20^+ PC3 cells were used as a negative control in the LDH assay. Data are plotted as means t SD. Results are representative of three independent experiments. *P<0.05, **P<0.01, ***P<0.001 versus controls.
Furthermore, PHF20-specific T cells could lyse HLA-A2^+ and PHF20^+ MCF-7 breast cancer cells (FIG. 9C).

Compound | cell death ([1]; MG132 treatment during reprogramming) | iPSC colony formation ([1]; after MG132 treatment) | amounts of PHF20 protein [2] | recognition of peptide-pulsed cells by PHF20-specific T cells [3]
CC(C)C[C@@H](C=O)NC(=O)[C@H](CC(C)C)NC(=O)[C@H](CC(C)C)NC(=O)OCc1ccccc1 [MG132] (Cbz-Leu-Leu-Leu-aldehyde) | caused cell death | no iPSC colony formation was observed | increased the amounts of PHF20 protein | 
WQFNLLTHV (PHFP 2) |  |  |  | capable of recognizing
